# Test results as given in patent US9695155B2, “Herbicidal substituted pyrimidinyloxy benzene compounds” (E. I. DU PONT DE NEMOURS AND COMPANY, priority 2013, dated 2017).
# Legend:
# barnyardgrass = assay: Test A postemergence; type: in vivo, Echinochloa crus-galli
# Outline: (§1)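 Compounds in non-phytotoxic solvent with surfactant applied as soil spray preemergence, or postemergence to plants 2-10 cm at one- to two-leaf stage, in loam/sand. After approximately 10 days in greenhouse, injury rated visually versus untreated controls, 0 (no effect) to 100 (complete control).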
# johnsongrass = assay: Test C preemergence; type: in vivo, Sorghum halepense; details: for Johnsongrass plant response rating: preemergence
# From the text: (§2) Seeds of plant species selected from blackgrass (Alopecurus myosuroides), Italian ryegrass (Lolium multiflorum), wheat, winter (winter wheat, Triticum aestivum), galium (catchweed bedstraw, Galium aparine), corn (Zea mays), large (Lg) crabgrass (Digitaria sanguinalis), giant foxtail (Setaria faberii), johnsongrass (Sorghum halepense), lambsquarters (Chenopodium album), morningglory (Ipomoea coccinea), yellow nutsedge (Cyperus esculentus), pigweed (Amaranthus retroflexus), ragweed (common ragweed, Ambrosia elatior), soybean (Glycine max), barnyardgrass (Echinochloa crus-galli), oilseed rape (Brassica napus), waterhemp (common waterhemp, Amaranthus rudis), kochia (Kochia scoparia), wild oat (Avena fatua), surinam grass (Brachiaria decumbens), foxtail, green (green foxtail, Setaria viridis), goosegrass (Eleusine indica), bromegrass, downy (downy bromegrass, Bromus tectorum), nightshade (eastern black nightshade, Solanum ptycanthum), cocklebur (common cocklebur, Xanthium strumarium), cupgrass, woolly (woolly cupgrass, Eriochloa villosa), bermudagrass (Cynodon dactylon), sunflower, (common oilseed sunflower, Helianthus annuus), Russian thistle (Salsola kali), and velvetleaf (Abutilon theophrasti) were planted into a blend of loam soil and sand and treated preemergence with test chemicals formulated in a non-phytotoxic solvent mixture which included a surfactant.
# (§3) At the same time, plants selected from these crop and weed species and also barley, winter (winter barley, Hordeum vulgare), windgrass (Apera spica-venti), chickweed (common chickweed, Stellaria media), deadnettle (henbit deadnettle, Lamium amplexicaule), and canarygrass (littleseed canarygrass, Phalaris minor) were planted in pots containing Redi-Earth® planting medium (Scotts Company, 14111 Scottslawn Road, Marysville, Ohio 43041) comprising spaghnum peat moss, vermiculite, wetting agent and starter nutrients and treated with postemergence applications of test chemicals formulated in the same manner. Plants ranged in height from 2 to 18 cm (1- to 4-leaf stage) for postemergence treatments. Treated plants and controls were maintained in a greenhouse for 13 to 15 days, after which time all species were compared to controls and visually evaluated. Plant response ratings, summarized in Table C, are based on a scale of 0 to 100 where 0 is no effect and 100 is complete control. A dash (-) response means no test result.
# wheat, winter = assay: Test C preemergence; type: in vivo, Triticum aestivum; details: for Wheat plant response rating: preemergence
# From the text: as §2, §3
# large (Lg) crabgrass = assay: Test A preemergence; type: in vivo, Digitaria sanguinalis; details: for Crabgrass, Large plant response rating: 500 g ai/ha
# Outline: as §1
# corn [1] = assay: Test C preemergence; type: in vivo, Zea mays; details: for Corn plant response rating: preemergence; for Plant response rating, Corn: Preemergence, scale 0 to 100, 0 no effect, 100 complete control
# From the text: as §2, §3
# yellow nutsedge = assay: Test C preemergence; type: in vivo, Cyperus esculentus; details: for Nutsedge, Yellow plant response rating: preemergence
# From the text: as §2, §3
# corn [2] = assay: Test A postemergence; type: in vivo, Zea mays
# Outline: as §1
# velvetleaf = assay: Test A postemergence; type: in vivo, Abutilon theophrasti
# Outline: as §1
# Italian ryegrass = assay: Test C preemergence; type: in vivo, Lolium multiflorum; details: for Ryegrass, Italian plant response rating: preemergence
# From the text: as §2, §3
# [3] = 125 g ai/ha, 0 to 100 scale where 0 is no effect and 100 is complete control
# [4] = 500 g ai/ha, 0 to 100 scale where 0 is no effect and 100 is complete control
# [5] = 16 g ai/ha, scale 0 to 100 (0 no effect, 100 complete control)
# [6] = 62 g ai/ha, scale 0 (no effect) to 100 (complete control)
# [7] = 125 g ai/ha, scale 0 (no effect) to 100 (complete control)
# [8] = 0 to 100 scale where 0 is no effect and 100 is complete control
# [9] = 125 g ai/ha, 0 to 100 scale, 0 no effect, 100 complete control
# [10] = 31 g ai/ha, scale 0 to 100 (0 no effect, 100 complete control)
# [11] = Preemergence, 62 g ai/ha, scale 0 to 100, 0 no effect, 100 complete control
smiles,measurement,setting,value
FC(F)c1cccc(Oc2ncc(Cl)cn2)c1-n1cc(C(F)(F)F)cn1 [Compound 170],Barnyardgrass plant response rating,barnyardgrass; [3],70
same,"Plant response rating, Barnyardgrass",barnyardgrass; [4],90
same,Johnsongrass plant response rating,johnsongrass; [5],0
same,Johnsongrass plant response rating,johnsongrass; [6],70
same,Johnsongrass plant response rating,johnsongrass; [7],85
same,Wheat plant response rating,"wheat, winter; [5]",0
same,Wheat plant response rating,"wheat, winter; [6]",20
same,Wheat plant response rating,"wheat, winter; [7]",60
same,"Plant response rating, Crabgrass, Large",large (Lg) crabgrass; [3],100
same,"Crabgrass, Large plant response rating",large (Lg) crabgrass; [8],100
same,Corn plant response rating,corn [1]; [5],0
same,Corn plant response rating,corn [1]; [6],15
same,Corn plant response rating,corn [1]; [7],40
same,"Plant response rating, Corn",corn [1]; 31 g ai/ha,5
same,"Nutsedge, Yellow plant response rating",yellow nutsedge; [5],0
same,"Nutsedge, Yellow plant response rating",yellow nutsedge; [6],15
same,"Nutsedge, Yellow plant response rating",yellow nutsedge; [7],55
same,Corn plant response rating,corn [2]; [3],80
same,"Plant response rating, Corn",corn [2]; [4],90
same,Velvetleaf plant response rating,velvetleaf; [3],70
same,"Plant response rating, Velvetleaf",velvetleaf; [4],100
same,"Ryegrass, Italian plant response rating",Italian ryegrass; [5],5
same,"Ryegrass, Italian plant response rating",Italian ryegrass; [6],75
same,"Ryegrass, Italian plant response rating",Italian ryegrass; [7],90
NC(=S)c1cccc(Oc2ncc(Cl)cn2)c1-n1cc(Cl)cn1 [Compound 292],"Plant response rating, Barnyardgrass",barnyardgrass; [9],60
same,"Plant response rating, Barnyardgrass",barnyardgrass; [4],90
same,Johnsongrass plant response rating,johnsongrass; [5],0
same,Johnsongrass plant response rating,johnsongrass; [10],5
same,Johnsongrass plant response rating,johnsongrass; [7],85
same,"Plant response rating, Johnsongrass",johnsongrass; [11],40
same,Wheat plant response rating,"wheat, winter; [5]",0
same,Wheat plant response rating,"wheat, winter; [10]",0
same,Wheat plant response rating,"wheat, winter; [7]",15
same,"Plant response rating, Wheat","wheat, winter; [11]",10
same,"Crabgrass, Large plant response rating (0 to 100 scale)",large (Lg) crabgrass; 125 g ai/ha,100
same,"Crabgrass, Large plant response rating",large (Lg) crabgrass; [8],100
same,Corn plant response rating,corn [1]; [5],0
same,Corn plant response rating,corn [1]; [10],5
same,Corn plant response rating,corn [1]; [7],45
same,"Plant response rating, Corn",corn [1]; 62 g ai/ha,10
same,"Nutsedge, Yellow plant response rating",yellow nutsedge; [5],0
same,"Nutsedge, Yellow plant response rating",yellow nutsedge; [10],0
same,"Nutsedge, Yellow plant response rating",yellow nutsedge; [7],35
same,"Plant response rating, Nutsedge, Yellow",yellow nutsedge; [11],0
same,"Plant response rating, Corn",corn [2]; [9],50
same,"Plant response rating, Corn",corn [2]; [4],80
same,"Plant response rating, Velvetleaf",velvetleaf; [9],70
same,"Plant response rating, Velvetleaf",velvetleaf; [4],100
same,"Ryegrass, Italian plant response rating",Italian ryegrass; [5],0
same,"Ryegrass, Italian plant response rating",Italian ryegrass; [10],0
same,"Ryegrass, Italian plant response rating",Italian ryegrass; [7],85
same,"Plant response rating, Ryegrass, Italian",Italian ryegrass; [11],10
